Laboratory results as given in ChEMBL document CHEMBL1146932, “A series of 23,24-dihydrodiscodermolide analogues with simplified lactone regions” (2006).

Columns and labels:
Format in all cases: functional
Conditions in all cases: Homo sapiens
NCI/ADR-RES = experiment: Antiproliferative activity against NCI/ADR cell line
CCRF-CEM [1] = experiment: Antiproliferative activity against resistant CCRF-CEM/PTX cell line
A549 [2] = experiment: Antiproliferative activity against A549 cell line
CCRF-CEM [3] = experiment: Antiproliferative activity against CCRF-CEM cell line
MCF7 = experiment: Antiproliferative activity against MCF7 cell line
CCRF-CEM [4] = experiment: Antiproliferative activity against resistant CCRF-CEM/VP16 cell line
CCRF-CEM [5] = experiment: Antiproliferative activity against resistant CCRF-CEM/VBL cell line
A549 [6] = experiment: Antiproliferative activity against A549t12 cell line

Structure (SMILES)	GI50 (NCI/ADR-RES) [nM]	GI50 (CCRF-CEM [1]) [nM]	GI50 (A549 [2]) [nM]	GI50 (CCRF-CEM [3]) [nM]	GI50 (MCF7) [nM]	GI50 (CCRF-CEM [4]) [nM]	GI50 (CCRF-CEM [5]) [nM]	GI50 (A549 [6]) [nM]
C=C/C=C\[C@H](C)[C@H](OC(N)=O)[C@@H](C)[C@H](O)[C@@H](C)C/C(C)=C\[C@H](C)[C@@H](O)[C@@H](C)/C=C\[C@@H](O)C[C@@H]1OC(=O)[C@H](C)[C@@H](O)[C@H]1C [DISERMOLIDE]	240	92	22	16	28	52	158	30
CC/C=C\[C@H](C)[C@H](OC(N)=O)[C@@H](C)[C@H](O)[C@@H](C)C/C(C)=C\[C@H](C)[C@@H](O)[C@@H](C)/C=C\[C@@H](O)C[C@@H]1OC(=O)NC[C@H]1C	10000		520		110			1000
CC/C=C\[C@H](C)[C@H](OC(N)=O)[C@@H](C)[C@H](O)[C@@H](C)C/C(C)=C\[C@H](C)[C@@H](O)[C@@H](C)/C=C\[C@@H](O)C[C@@H]1OC(=O)[C@H](C)C[C@H]1C	140	65	11	8.6	5.8	12	209	50
CC/C=C\[C@H](C)[C@H](OC(N)=O)[C@@H](C)[C@H](O)[C@@H](C)C/C(C)=C\[C@H](C)[C@@H](O)[C@@H](C)/C=C\[C@@H](O)C[C@H]1CCC(=O)O1	730	285	46	6.5	6.4	7.1	3810	63
CC/C=C\[C@H](C)[C@H](OC(N)=O)[C@@H](C)[C@H](O)[C@@H](C)C/C(C)=C\[C@H](C)[C@@H](O)[C@@H](C)/C=C\[C@H](O)C[C@@H]1CCC(=O)O1	10000		4000		2000			10000
CC/C=C\[C@H](C)[C@H](OC(N)=O)[C@@H](C)[C@H](O)[C@@H](C)C/C(C)=C\[C@H](C)[C@@H](O)[C@@H](C)/C=C\[C@@H](O)C[C@@H]1OC(=O)[C@H](C)[C@@H](O)[C@H]1C	190		7		6.2			
CC/C=C\[C@H](C)[C@H](OC(N)=O)[C@@H](C)[C@H](O)[C@@H](C)C/C(C)=C\[C@H](C)[C@@H](O)[C@@H](C)/C=C\[C@@H](O)C[C@H](O)[C@H](C)C[C@H](C)C(=O)OC	10000		4000		1000			4000
CC/C=C\[C@H](C)[C@H](OC(N)=O)[C@@H](C)[C@H](O)[C@@H](C)C/C(C)=C\[C@H](C)[C@@H](O)[C@@H](C)/C=C\[C@@H](O)C[C@H](O)[C@H](C)CO	10000		3000		1000			5000
CC/C=C\[C@H](C)[C@H](OC(N)=O)[C@@H](C)[C@H](O)[C@@H](C)C/C(C)=C\[C@H](C)[C@@H](O)[C@@H](C)/C=C\[C@@H](O)C[C@@H]1OC(=O)[C@H](C)[C@@H](OC)[C@H]1C	250	79	6.5	4.4	3.8	8.4	416	12
